Experimental data taken from US20250066347A1, “SUBSTITUTED THIAZOLIDINEDIONE DERIVATIVE COMPOUND, AND PHARMACEUTICAL COMPOSITION FOR PREVENTING OR TREATING CANCER, COMPRISING SAME” (MEDIFIC, INC., priority 2021, published 2025).
Where two headings read alike, the source gives them in different places.

Assay: In vivo PK test, drug concentration in plasma after oral or intravenous administration
Settings: CRljOri:CD1(ICR), mouse, plasma
Protocol: • Experimental Drug: Compound 11 • Excipient: 10% DMSO, 75% PEG400, 15% saline 1.2. Experimental system • mouse, CRljOri:CD1(ICR), SPF 6 weeks old (7 weeks old at the time of administration) 1.3. Administration route • oral administration (PO), intravenous administration (IV) 1.4. Administration method and number of administration
After obtaining the mouse, the mouse was acclimatized for 5 days, and used in the experiment. An administration dose was 25 mg/kg by oral administration and 5 mg/kg by intravenous administration. A dosage for each individual was calculated based on the weight after fasting (on the day of administration), and the drug was orally administered once to an oral administration (PO) group using a disposable syringe (1 mL) with a zonde for oral administration attached, and intravenously administered to the tail vein of an intravenous administration (IV) group using a disposable syringe (1 mL).
About 0.3 mL of blood was collected from a jugular vein with a 1 mL syringe (25G) treated with 3.8% sodium citrate (about 30˜40 μl), placed in one microtube (QSP, 1.5 mL), and centrifuged at 12,000 RPM/3 min to collect plasma. The plasma was frozen and stored at −80° C. until analysis, and all animals of a pharmacokinetic experiment group were euthanized after completing the blood collection.
580 μl of acetonitrile (including internal standard) was added to 20 μl of plasma/tissue, and centrifugation was performed at 4° C. at 15,000 rpm for 5 minutes with vortexing. A supernatant obtained after the centrifugation was analyzed with LC-MS/MS.
PK parameter was calculated as a non-compartmental analysis model, using a phoenix WinNonlin 6.4 version (Pharsight, USA) program.

[1] = iv, 5 mg/kg, intravenous 5 mg/kg, read-out: Drug concentration in plasma, Average
[2] = iv, 5 mg/kg, intravenous 5 mg/kg, read-out: Drug concentration in plasma, Individual
[3] = po, 25 mg/kg, oral 25 mg/kg, read-out: Drug concentration in plasma, Average

For CC(C)(C)c1ccc(-c2cc(/C=C3\SC(=O)NC3=O)ccn2)cc1 [Compound 11, (Z)-5-((2-(4-(tert-butyl)phenyl)pyridin-4-yl)methylene)thiazolidine-2,4-dione], the concentration at 0.08 h [1] was 2560 ng/mL, the concentration at 0.08 h [2] was 2820 ng/mL and the concentration at 0.25 h [1] was 2540 ng/mL. The concentration at 0.25 h [2] was 2600 ng/mL, the concentration at 0.5 h [1] was 2260 ng/mL and the concentration at 0.5 h [2] was 2790 ng/mL. For the same molecule, the concentration at 1 h [1] was 2100 ng/mL, the concentration at 1 h [2] was 2590 ng/mL and the concentration at 2 hr (iv, 5 mg/kg, intravenous 5 mg/kg, 2 hr, read-out: Drug concentration in plasma, Average) was 1570 ng/mL. It also gave a concentration at 2 hr (iv, 5 mg/kg, intravenous 5 mg/kg, 2 hr, read-out: Drug concentration in plasma, Individual) of 1130 ng/mL, a concentration at 4 h [1] of 1280 ng/mL and a concentration at 4 h [2] of 1050 ng/mL. The concentration at 6 h (iv, 5 mg/kg, intravenous 5 mg/kg) was 652 ng/mL, the concentration at 8 h [1] was 575 ng/mL and the concentration at 8 h [2] was 424 ng/mL. For the same molecule, the concentration at 24 h (iv, 5 mg/kg, intravenous 5 mg/kg, BQL = <1 ng/ml, ND = not detectable, read-out: Drug concentration in plasma, Individual) was 1.9 ng/mL, the concentration at 24 h [1] was 1.8 ng/mL and the concentration at 0.25 h [3] was 2910 ng/mL. The concentration at 0.5 h [3] was 4420 ng/mL, the concentration at 1 h [3] was 3770 ng/mL and the concentration at 2 h (po, 25 mg/kg, oral 25 mg/kg, 2 hr) was 3870 ng/mL. The concentration at 4 h [3] was 3540 ng/mL, the concentration at 6 h (po, 25 mg/kg, oral 25 mg/kg) was 5440 ng/mL and the concentration at 8 h [3] was 5020 ng/mL. The concentration at 8 h (po, 25 mg/kg, oral 25 mg/kg, read-out: Drug concentration in plasma, Individual) was 3930 ng/mL, the concentration at 24 h (po, 25 mg/kg, oral 25 mg/kg, BQL = <1 ng/ml, read-out: Drug concentration in plasma, Individual) was 4.1 ng/mL and the concentration at 24 h [3] was 3.6 ng/mL.
